According to PMC8071193, “Dual-Target Compounds against Type 2 Diabetes Mellitus: Proof of Concept for Sodium Dependent Glucose Transporter (SGLT) and Glycogen Phosphorylase (GP) Inhibitors” (Pharmaceuticals, 2021):
Read-outs that look alike come from different tables or passages of the source.

Key:
SGLT2 = biological target: T1, SGLT2 (Homo sapiens, UniProt P31639); test: SGLT2 inhibition, 2-NBDG glucose uptake in SGLT2-overexpressing TSA201 cells; assay type: cell-based; settings: for SGLT2 inhibition (in words): TSA201 cells, up to 1000 µM; for factor by which the 2-naphthyl derivative is the stronger inhibitor of SGLT2: comparisons 21a–21b and 24a–24b
T1 construct: host or cells: TSA201 (Human Embryonal Kidney) cells, lentiviral transduction, puromycin selection
T1 sequence (P31639 1-672): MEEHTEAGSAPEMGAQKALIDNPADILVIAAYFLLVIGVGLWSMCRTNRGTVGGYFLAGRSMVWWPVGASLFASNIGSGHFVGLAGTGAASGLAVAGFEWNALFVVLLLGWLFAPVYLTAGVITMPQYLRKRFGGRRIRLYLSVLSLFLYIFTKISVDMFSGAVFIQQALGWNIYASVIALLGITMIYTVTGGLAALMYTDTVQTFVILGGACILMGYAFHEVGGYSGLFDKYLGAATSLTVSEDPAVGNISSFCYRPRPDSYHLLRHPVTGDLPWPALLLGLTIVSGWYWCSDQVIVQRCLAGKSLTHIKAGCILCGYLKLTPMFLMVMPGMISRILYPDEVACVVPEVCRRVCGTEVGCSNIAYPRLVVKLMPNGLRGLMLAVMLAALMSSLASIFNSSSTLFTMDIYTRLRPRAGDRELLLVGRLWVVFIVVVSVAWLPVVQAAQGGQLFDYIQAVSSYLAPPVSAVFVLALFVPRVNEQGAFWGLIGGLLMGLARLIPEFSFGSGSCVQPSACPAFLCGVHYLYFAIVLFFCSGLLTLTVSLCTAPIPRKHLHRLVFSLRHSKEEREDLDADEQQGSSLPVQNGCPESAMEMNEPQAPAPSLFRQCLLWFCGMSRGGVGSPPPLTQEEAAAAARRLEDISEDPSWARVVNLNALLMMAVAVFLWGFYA
Experimental: (§1) Cells (100,000 cells, TSA201) were plated into each well of a 24-well plate and incubated overnight at 37 °C. […] Two wells were treated only with hexadimetrine bromide as a control. After 24 h of transfection, the medium was changed to fresh medium without antibiotics. Cells were collected and transferred into T-25 flasks after 3 days. On the fifth day, 10 µg/mL puromycin was added to select only the transfected cells. The nontransfected cells cannot survive this high concentration of antibiotic. To keep up the selection, the medium including 10 µg/mL puromycin was replaced every two days. The cells lived under puromycin pressure until the day of the experiments.
(§2) TSA201 cells (25,000) with and without overexpressed SGLT1 or 2 were put into poly-L-lysine (P5999, Sigma-Aldrich, St. Luis, MO, USA) treated wells of a 96-well plate. The next day, the cells were starved for 1 h with 90 µL glucose-free medium (D5036-10X1L Sigma-Aldrich, St. Luis, MO, USA) (with or without inhibitor). After starving, cells were treated with 100 µM 2-NBDG and incubated for 30 min (again with or without inhibitor). The incubation time of cells with possible inhibitors was 90 min altogether. After incubation, the medium was removed, the wells were washed with PBS twice, lysed with 100 µL lysis buffer (0.1 M KH2PO4 + 1% Triton-x, pH = 11), and stored at -20°C. […] Subsequently, the protein concentration was measured and NBDG uptake was normalized to protein amount.
(§3) After selecting optimal concentrations, each compound was tested at four different concentrations. […] To determine the specific effects of the compounds on SGLT1 or 2, the glucose uptake values in TSA201 cells without SGLT overexpression were subtracted from the values in TSA201 cell overexpressing SGLT. […] All calculations were prepared using the GraphPad Prism software (GraphPad Software, Inc., SanDiego, CA, USA). The data were plotted on a logarithmic scale as a function of inhibitor concentration. The IC50 values were calculated by non-linear regression analysis from sigmoidal dose-response curves. The results of kinetic experiments were calculated from at least three independent experiments. Each experiment contained four parallel samples that were averaged. The standard deviations were calculated based on the average values for the independent experiments.

SGLT1 = biological target: T2, SGLT1 (Homo sapiens, UniProt P13866); test: SGLT1 inhibition, 2-NBDG glucose uptake in SGLT1-overexpressing TSA201 cells; assay type: cell-based
T2 construct: host or cells: TSA201 (Human Embryonal Kidney) cells, lentiviral transduction, puromycin selection
T2 sequence (P13866 1-664): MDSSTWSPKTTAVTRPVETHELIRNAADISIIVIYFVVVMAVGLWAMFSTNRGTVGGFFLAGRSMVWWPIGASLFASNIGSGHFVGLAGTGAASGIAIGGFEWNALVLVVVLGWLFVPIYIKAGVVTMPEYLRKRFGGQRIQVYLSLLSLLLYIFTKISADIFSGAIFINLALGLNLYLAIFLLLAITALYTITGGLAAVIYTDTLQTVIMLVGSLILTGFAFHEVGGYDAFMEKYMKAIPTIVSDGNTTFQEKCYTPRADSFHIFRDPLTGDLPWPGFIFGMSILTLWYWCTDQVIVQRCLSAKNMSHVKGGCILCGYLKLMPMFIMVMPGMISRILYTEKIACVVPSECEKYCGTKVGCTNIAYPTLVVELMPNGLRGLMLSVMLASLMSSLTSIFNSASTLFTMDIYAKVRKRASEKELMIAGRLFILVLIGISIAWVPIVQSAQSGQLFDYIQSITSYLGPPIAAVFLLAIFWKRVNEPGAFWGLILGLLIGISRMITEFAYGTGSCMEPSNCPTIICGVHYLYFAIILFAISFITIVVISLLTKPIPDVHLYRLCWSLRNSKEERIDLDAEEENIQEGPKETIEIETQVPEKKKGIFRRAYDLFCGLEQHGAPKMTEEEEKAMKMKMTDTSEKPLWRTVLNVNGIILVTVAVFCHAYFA
Experimental: as §1, §2, §3

[1] = biological target: T3, rabbit muscle glycogen phosphorylase b (rmGPb) (Oryctolagus cuniculus, UniProt P00489); test: Glycogen phosphorylase b enzyme kinetic inhibition assay (direction of glycogen synthesis); assay type: biochemical
T3 construct: Glycogen phosphorylase b was isolated from rabbit skeletal muscle; from tissue; host or cells: rabbit skeletal muscle
T3 sequence (P00489 1-843): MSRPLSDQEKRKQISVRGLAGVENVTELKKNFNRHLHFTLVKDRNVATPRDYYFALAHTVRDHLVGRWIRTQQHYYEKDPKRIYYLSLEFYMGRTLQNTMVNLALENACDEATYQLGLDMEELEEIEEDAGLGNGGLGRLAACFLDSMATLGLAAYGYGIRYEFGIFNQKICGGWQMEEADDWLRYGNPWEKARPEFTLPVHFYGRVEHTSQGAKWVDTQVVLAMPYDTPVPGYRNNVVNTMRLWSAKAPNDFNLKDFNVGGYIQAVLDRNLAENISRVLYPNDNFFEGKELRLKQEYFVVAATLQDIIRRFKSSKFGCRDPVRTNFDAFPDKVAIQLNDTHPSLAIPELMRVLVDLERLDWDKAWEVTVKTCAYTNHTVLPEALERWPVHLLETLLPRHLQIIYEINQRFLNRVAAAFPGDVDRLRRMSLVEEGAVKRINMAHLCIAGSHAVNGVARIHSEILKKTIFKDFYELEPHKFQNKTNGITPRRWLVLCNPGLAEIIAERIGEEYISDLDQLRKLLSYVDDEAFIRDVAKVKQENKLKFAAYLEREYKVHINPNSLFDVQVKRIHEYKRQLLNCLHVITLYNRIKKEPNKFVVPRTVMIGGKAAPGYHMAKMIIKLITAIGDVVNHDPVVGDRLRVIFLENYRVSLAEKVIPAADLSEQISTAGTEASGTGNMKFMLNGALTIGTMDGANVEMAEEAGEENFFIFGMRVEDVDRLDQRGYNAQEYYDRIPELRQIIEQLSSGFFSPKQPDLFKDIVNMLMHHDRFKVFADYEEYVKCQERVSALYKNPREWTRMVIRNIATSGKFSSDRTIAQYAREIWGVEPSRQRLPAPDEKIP
Source text: The 2-NBDG (2-deoxy-2-[(7-nitro-2,1,3-benzoxadiazol-4-yl)amino]-D-glucose, cat. 11046) was purchased from Cayman Chemical Company (Ann Arbor, MI, USA). Lentivirus for SLC5A1 and SLC5A2 (NM_000343 for SGLT1, and NM-003041 for SGLT2) were obtained from Origene (Rockville, MD, USA). These expression vectors contain a puromycin resistance gene. […] CyQUANT^TM Cell Proliferation Assay Kit (2036547) was from Invitrogen (Carlsbad, CA, USA). Glycogen phosphorylase b was isolated from rabbit skeletal muscle according to the method of Fischer and Krebs.
Enzyme activity in the direction of glycogen synthesis was assayed. Kinetic data were collected using the muscle phosphorylase b (dephosphorylated, GPb) isoform. […] Enzymatic activities were presented in the form of a double-reciprocal plot (Lineweaver-Burk). The plots were analysed by a non-linear data analysis program. The inhibitor constants (Ki) were determined by secondary plots, replotting the slopes from the Lineweaver-Burk plot against the inhibitor concentrations. The means of standard errors for all calculated kinetic parameters averaged to less than 10% [78, 79].

[2] = Table 2, NI: no inhibition at 625 µM
[3] = Table 2, TSA-201 cells, NI: no inhibition at 1000 µM, compounds 1-2 used as controls for in-house assay
[4] = Table 3, TSA-201 cells, NI: no inhibition at 1000 µM

| SMILES | IC50 (SGLT2) | SGLT2 inhibition (in words) (SGLT2) | IC50 [1, 2] | IC50 (SGLT2; [3]) | IC50 (SGLT1; [3]) | IC50 (SGLT2; [4]) | IC50 (SGLT1; [4]) | further results |
| --- | --- | --- | --- | --- | --- | --- | --- | --- |
| OC[C@H]1O[C@@H](c2noc(Cc3ccccc3)n2)[C@H](O)[C@@H](O)[C@@H]1O [10a, 5-Benzyl-3-(β-D-glucopyranosyl)-1,2,4-oxadiazole] | 3.68 ± 0.59 µM | showed inhibitory effects | > 625 µM | – | – | – | – | IC50 (SGLT1): 20.7 ± 7.66 µM |
| COc1ccc(Cc2nc([C@@H]3O[C@H](CO)[C@@H](O)[C@H](O)[C@H]3O)no2)cc1 [10b, 3-(β-D-Glucopyranosyl)-5-(4-methoxybenzyl)-1,2,4-oxadiazole] | – | complete loss of the inhibition | > 625 µM | > 1000 µM | > 1000 µM | – | – | – |
| OC[C@H]1O[C@@H](c2noc(Cc3ccc(Cl)cc3)n2)[C@H](O)[C@@H](O)[C@@H]1O [10c, 5-(4-Chlorobenzyl)-3-(β-D-glucopyranosyl)-1,2,4-oxadiazole] | – | complete loss of the inhibition | > 625 µM | > 1000 µM | > 1000 µM | – | – | – |
| OC[C@H]1O[C@@H](c2nnc(Cc3ccccc3)o2)[C@H](O)[C@@H](O)[C@@H]1O [13a, 5-Benzyl-2-(β-D-glucopyranosyl)-1,3,4-oxadiazole] | 2.21 ± 0.58 µM | showed inhibitory effects | > 625 µM | – | – | – | – | IC50 (SGLT1): 23.7 ± 6.14 µM |
| COc1ccc(Cc2nnc([C@@H]3O[C@H](CO)[C@@H](O)[C@H](O)[C@H]3O)o2)cc1 [13b, 2-(β-D-Glucopyranosyl)-5-(4-methoxybenzyl)-1,3,4-oxadiazole] | – | complete loss of the inhibition | > 625 µM | > 1000 µM | > 1000 µM | – | – | – |
| OC[C@H]1O[C@@H](c2nnc(Cc3ccc(Cl)cc3)o2)[C@H](O)[C@@H](O)[C@@H]1O [13c, 5-(4-Chlorobenzyl)-2-(β-D-glucopyranosyl)-1,3,4-oxadiazole] | – | complete loss of the inhibition | > 625 µM | > 1000 µM | > 1000 µM | – | – | – |
| OC[C@H]1O[C@@H](c2nccc(Cc3ccccc3)n2)[C@H](O)[C@@H](O)[C@@H]1O [16a, 4-Benzyl-2-(β-D-glucopyranosyl)pyrimidine] | 17 ± 3.16 µM | inhibitory activity in the micromolar range | > 625 µM | – | – | – | – | IC50 (SGLT1): 18 ± 3.92 µM |
| COc1ccc(Cc2ccnc([C@@H]3O[C@H](CO)[C@@H](O)[C@H](O)[C@H]3O)n2)cc1 [16b, 2-(β-D-Glucopyranosyl)-4-(4-methoxybenzyl)pyrimidine] | 11.6 ± 3.19 µM | inhibitory activity in the micromolar range | > 625 µM | – | > 1000 µM | – | – | – |
| OC[C@H]1O[C@@H](c2nccc(Cc3ccc(Cl)cc3)n2)[C@H](O)[C@@H](O)[C@@H]1O [16c, 4-(4-Chlorobenzyl)-2-(β-D-glucopyranosyl)pyrimidine] | – | inactive | > 625 µM | > 1000 µM | > 1000 µM | – | – | – |
| OC[C@H]1O[C@@H](c2nccc(Cc3ccc4ccccc4c3)n2)[C@H](O)[C@@H](O)[C@@H]1O [16d, 2-(β-D-Glucopyranosyl)-4-(2-naphthylmethyl)pyrimidine] | – | non-inhibitory | > 625 µM | > 1000 µM | > 1000 µM | – | – | – |
| OC[C@H]1O[C@@H](c2nc(Cc3ccccc3)n[nH]2)[C@H](O)[C@@H](O)[C@@H]1O [19a] | 71.7 ± 10.6 µM | – | > 625 µM | – | – | – | – | fold weakening in the SGLT2 inhibition (SGLT2; 19a vs. 10a and 13a): 20-30 fold; IC50 (SGLT1): 19.6 ± 7.26 µM |
| OCCn1nc([C@@H]2O[C@H](CO)[C@@H](O)[C@H](O)[C@H]2O)nc1Cc1ccccc1 [19b] | – | complete loss of the inhibition | > 625 µM | > 1000 µM | > 1000 µM | – | – | – |
| OC[C@H]1O[C@@H](c2nc(Cc3ccccc3)n(-c3ccccc3)n2)[C@H](O)[C@@H](O)[C@@H]1O [19c] | 2.44 ± 0.85 µM | – | > 625 µM | – | – | – | – | IC50 (SGLT1): 35.5 ± 9.56 µM |
| OC[C@H]1O[C@@H](n2cc(-c3ccccc3)nn2)[C@H](O)[C@@H](O)[C@@H]1O [21a] | – | – | – | – | – | 67.3 ± 10.9 µM | 167 ± 63.5 µM | – |
| OC[C@H]1O[C@@H](n2cc(-c3ccc4ccccc4c3)nn2)[C@H](O)[C@@H](O)[C@@H]1O [21b] | – | – | – | – | – | 10.3 ± 2.18 µM | 127 ± 21.6 µM | factor by which the 2-naphthyl derivative is the stronger inhibitor of SGLT2 (SGLT2): ~ 7 |
| OC[C@H]1O[C@@H](c2nc(-c3ccccc3)cs2)[C@H](O)[C@@H](O)[C@@H]1O [23a] | – | – | – | – | – | > 1000 µM | > 1000 µM | – |
| OC[C@H]1O[C@@H](c2nc(-c3ccc4ccccc4c3)cs2)[C@H](O)[C@@H](O)[C@@H]1O [23b] | – | – | – | – | – | > 1000 µM | > 1000 µM | – |
| OC[C@H]1O[C@@H](c2nc(-c3ccccc3)c[nH]2)[C@H](O)[C@@H](O)[C@@H]1O [24a] | – | – | – | – | – | 91.04 ± 0.56 µM | 245 ± 42 µM | – |
| OC[C@H]1O[C@@H](c2nc(-c3ccc4ccccc4c3)c[nH]2)[C@H](O)[C@@H](O)[C@@H]1O [24b, 2-(β-D-glucopyranosyl)-4(5)-(2-naphthyl)-imidazole] | – | – | – | – | – | 3.5 ± 0.88 µM | 11.9 ± 2.61 µM | factor by which the 2-naphthyl derivative is the stronger inhibitor of SGLT2 (SGLT2): ~ 26 |
| OC[C@H]1O[C@@H](c2nnc(-c3ccccc3)[nH]2)[C@H](O)[C@@H](O)[C@@H]1O [25a] | – | – | – | – | – | 15 ± 2.74 µM | 125 ± 46.5 µM | – |
| OC[C@H]1O[C@@H](c2nc(-c3ccc4ccccc4c3)n[nH]2)[C@H](O)[C@@H](O)[C@@H]1O [25b] | – | – | – | – | – | 17.7 ± 2.32 µM | 13 ± 2.88 µM | – |
| CCOc1ccc(Cc2cc([C@@H]3O[C@H](CO)[C@@H](O)[C@H](O)[C@H]3O)ccc2Cl)cc1 [compound 2, dapagliflozin, reference compound] | – | – | – | – | – | – | – | IC50 [1]: > 625 µM |
| OC[C@H]1O[C@@H](n2cc(Cc3ccccc3)nn2)[C@H](O)[C@@H](O)[C@@H]1O [compound 20] | 23.2 ± 1.86 µM | – | – | – | – | – | – | IC50 (SGLT1): 101 ± 23.5 µM |
